Patent publication US10669272B2, “Substituted naphthyridinone compounds useful as T cell activators” (BRISTOL-MYERS SQUIBB COMPANY, priority 2018, dated 2020)
Like-named read-outs stand apart in the source and are kept apart here.

Columns and labels:
human DGKα = molecular target: T1, human DGKα (Homo sapiens, UniProt P23743); assay: DGKα LIPGLO assay (extruded liposome substrate), in vitro DGK inhibition; assay type: biochemical; settings: liposome (LIPGLO) assay; read-out: DGKa LIPGLO IC50
T1 construct: TVMV protease cleavage site (C); Hexa-His (C); made in house; host or cells: Sf9 insect cells (baculovirus, Bac-to-Bac)
T1 sequence (P23743 with tags, fused parts or gaps): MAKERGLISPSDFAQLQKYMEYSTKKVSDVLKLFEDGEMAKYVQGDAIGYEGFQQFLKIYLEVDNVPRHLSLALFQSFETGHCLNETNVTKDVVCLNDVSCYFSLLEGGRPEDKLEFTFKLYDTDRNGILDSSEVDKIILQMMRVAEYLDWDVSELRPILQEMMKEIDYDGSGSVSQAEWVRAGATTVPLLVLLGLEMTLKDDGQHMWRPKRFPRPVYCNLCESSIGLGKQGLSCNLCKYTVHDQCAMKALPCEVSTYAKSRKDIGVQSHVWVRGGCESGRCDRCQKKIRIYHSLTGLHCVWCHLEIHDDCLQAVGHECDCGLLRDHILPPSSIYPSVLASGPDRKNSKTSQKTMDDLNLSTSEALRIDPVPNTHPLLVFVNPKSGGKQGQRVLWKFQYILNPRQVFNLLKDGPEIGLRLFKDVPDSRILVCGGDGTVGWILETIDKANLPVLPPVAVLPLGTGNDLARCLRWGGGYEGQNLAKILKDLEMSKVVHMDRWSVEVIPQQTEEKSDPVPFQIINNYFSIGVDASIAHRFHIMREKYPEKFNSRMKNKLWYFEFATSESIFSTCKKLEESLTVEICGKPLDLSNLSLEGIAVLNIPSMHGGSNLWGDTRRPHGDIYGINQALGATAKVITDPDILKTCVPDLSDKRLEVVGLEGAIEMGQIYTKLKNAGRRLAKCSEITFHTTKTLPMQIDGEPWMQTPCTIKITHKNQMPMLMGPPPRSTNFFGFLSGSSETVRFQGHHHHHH

human DGKζ = molecular target: T2, human DGKζ (Homo sapiens, UniProt Q13574); assay: DGKζ LIPGLO assay (extruded liposome substrate), in vitro DGK inhibition; assay type: biochemical; settings: liposome (LIPGLO) assay; read-out: DGKz LIPGLO IC50
T2 construct: TVMV protease cleavage site (C); Hexa-His (C); made in house; host or cells: Sf9 insect cells (baculovirus, Bac-to-Bac)
T2 sequence (Q13574 with tags, fused parts or gaps isoform Q13574-4): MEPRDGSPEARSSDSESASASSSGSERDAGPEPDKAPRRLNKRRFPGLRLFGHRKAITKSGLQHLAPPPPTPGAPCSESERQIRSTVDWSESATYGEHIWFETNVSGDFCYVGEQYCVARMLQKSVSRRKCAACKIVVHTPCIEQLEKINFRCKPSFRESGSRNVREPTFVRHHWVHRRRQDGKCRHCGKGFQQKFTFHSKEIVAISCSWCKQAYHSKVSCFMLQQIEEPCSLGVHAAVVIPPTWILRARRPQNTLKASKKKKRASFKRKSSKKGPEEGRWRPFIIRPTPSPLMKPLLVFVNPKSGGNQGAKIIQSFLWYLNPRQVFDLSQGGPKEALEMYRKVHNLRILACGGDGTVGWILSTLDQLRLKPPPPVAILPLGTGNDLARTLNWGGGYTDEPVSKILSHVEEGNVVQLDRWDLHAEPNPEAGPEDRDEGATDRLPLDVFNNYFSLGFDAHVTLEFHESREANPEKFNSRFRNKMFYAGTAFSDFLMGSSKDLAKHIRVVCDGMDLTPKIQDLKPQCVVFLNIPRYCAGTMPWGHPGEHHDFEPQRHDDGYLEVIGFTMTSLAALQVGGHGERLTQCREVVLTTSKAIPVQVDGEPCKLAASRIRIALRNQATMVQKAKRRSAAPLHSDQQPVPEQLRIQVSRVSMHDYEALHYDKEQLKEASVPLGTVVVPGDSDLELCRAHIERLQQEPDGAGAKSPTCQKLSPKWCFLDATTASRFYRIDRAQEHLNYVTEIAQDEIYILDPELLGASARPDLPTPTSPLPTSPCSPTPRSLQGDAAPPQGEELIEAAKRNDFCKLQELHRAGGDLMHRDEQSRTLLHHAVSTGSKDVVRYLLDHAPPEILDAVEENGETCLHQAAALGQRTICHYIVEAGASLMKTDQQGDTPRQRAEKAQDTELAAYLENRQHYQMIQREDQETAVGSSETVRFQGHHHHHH

[1] = test system: OT-1 CD8+ T cells with SIINFEKL-loaded MC38 tumor cells; assay: Murine cytotoxic T lymphocyte assay (IFN-γ, OT-1 CTL with MC38 tumor cells); assay type: cell-based, mouse; settings: Mus musculus, MC-38; read-out: msCTL INFg IC50
Procedure, shortened: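 OT-1 CD8+ T cells, expanded 5 days with OVA peptide (1 μg/mL) and mIL2, pretreated 1 h with DGK inhibitors, then co-cultured overnight at 37° C at 1:10 with MC38 cells pulsed 3 h with 1 μg/mL SIINFEKL. IFN-γ in 24 h supernatant by AlphaLISA.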

naïve human CD8 T cells = assay: Human CD8 T cells IFN-γ assay; assay type: cell-based; settings: Homo sapiens, T-cell, 20 h, normalized to 3 μM reference compound with anti-CD3 plus anti-CD28 as 100% activation; read-out: HuCD8 INFG Normalized EC50;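 also: Naïve human CD8 T cells stimulated with plate-bound anti-CD3 and soluble anti-CD28, IFN-γ in supernatant quantified by AlphaLISA and converted to pg/mL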
Human venous whole blood = assay: Human whole blood IFN-γ assay; assay type: cell-based; settings: Homo sapiens, human whole blood, normalized to 3 μM reference compound with anti-CD3 plus anti-CD28 as 100% activation, read-out: INFg Whole Blood Normalized Agonist EC50;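 also: blood from healthy donors exposed to compound for 1 h before stimulation with anti-CD3 and anti-CD28 at 1 µg/mL each, IFN-γ quantified in supernatant by AlphaLISA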

IC50 (human DGKα) [nM]	IC50 (human DGKζ) [nM]	Structure (SMILES)	IC50 [1] [nM]	EC50 (naïve human CD8 T cells) [nM]	EC50 (Human venous whole blood; 24 h) [nM]	EC50 (Human venous whole blood) [nM]
4600	2100	C[C@@H]1CN(c2cc(=O)n(C)c3ccc(C#N)nc23)CCN1C(c1ccc(F)cc1)c1ccc(F)cc1 [Example 28, (R)-8-(4-(bis(4-fluorophenyl)methyl)-3-methylpiperazin-1-yl)-5-methyl-6-oxo-5,6-dihydro-1,5-naphthyridine-2-carbonitrile]	570	38	5300	–
500	430	C[C@@H]1CN(c2c(F)c(=O)n(C)c3ccc(C#N)nc23)CCN1C(c1ccc(F)cc1)c1ccc(F)cc1 [Example 30, (R)-8-(4-(bis(4-fluorophenyl)methyl)-3-methylpiperazin-1-yl)-7-fluoro-5-methyl-6-oxo-5,6-dihydro-1,5-naphthyridine-2-carbonitrile]	15	430	1600	–
980	850	C[C@@H]1CN(c2c(C#N)c(=O)n(C)c3ccc(C#N)nc23)CCN1C(c1ccc(F)cc1)c1ccc(F)cc1 [Example 32, (R)-8-(4-(bis(4-fluorophenyl)methyl)-3-methylpiperazin-1-yl)-5-methyl-6-oxo-5,6-dihydro-1,5-naphthyridine-2,7-dicarbonitrile]	43	17	–	400
21000	770	C[C@H]1CN(c2cc(=O)n(C)c3ccc(C#N)nc23)CCN1C(c1ccc(F)cc1)c1ccc(F)cc1 [Example 35, (S)-8-(4-(bis(4-fluorophenyl)methyl)-3-methylpiperazin-1-yl)-5-methyl-6-oxo-5,6-dihydro-1,5-naphthyridine-2-carbonitrile]	1100	61	2200	–
2200	1800	C[C@H]1CN(c2c(C#N)c(=O)n(C)c3ccc(C#N)nc23)CCN1C(c1ccc(F)cc1)c1ccc(F)cc1 [Example 38, (S)-8-(4-(bis(4-fluorophenyl)methyl)-3-methylpiperazin-1-yl)-5-methyl-6-oxo-5,6-dihydro-1,5-naphthyridine-2,7-dicarbonitrile]	78	67	3200	–
81000	240000	Cc1cc(C2CN(c3cc(=O)n(C)c4ccc(C#N)nc34)CC(C)N2C(c2ccc(F)cc2)c2ccc(F)cc2)ccn1 (centres unmarked) [Example 84, 8-(4-(bis(4-fluorophenyl)methyl)-3-methyl-5-(2-methylpyridin-4-yl)piperazin-1-yl)-5-methyl-6-oxo-5,6-dihydro-1,5-naphthyridine-2-carbonitrile]	10000	10000	20000	–
7000	2800	Cc1c(N2CCN(C(c3ccc(F)cc3)c3ccc(F)cc3)[C@H](C)C2)c2nc(C#N)ccc2n(C)c1=O [Example 99, (R)-8-(4-(bis(4-fluorophenyl)methyl)-3-methylpiperazin-1-yl)-5,7-dimethyl-6-oxo-5,6-dihydro-1,5-naphthyridine-2-carbonitrile]	1200	170	2800	–
4400	4400	C[C@@H]1CN(c2cc(=O)n(C)c3ccc(C#N)nc23)CCN1C(c1ccc(Cl)cc1)c1ccc(Cl)cc1 [Example 104, (R)-8-(4-(bis(4-chlorophenyl)methyl)-3-methylpiperazin-1-yl)-5-methyl-6-oxo-5,6-dihydro-1,5-naphthyridine-2-carbonitrile, dimethylformamide]	560	180	6500	–
47000	2000	CC[C@H]1CN(c2cc(=O)n(C)c3ccc(C#N)nc23)CCN1C(c1ccc(F)cc1)c1ccc(F)cc1 [Example 128, (S)-8-(4-(bis(4-fluorophenyl)methyl)-3-ethylpiperazin-1-yl)-5-methyl-6-oxo-5,6-dihydro-1,5-naphthyridine-2-carbonitrile]	940	1400	20000	–
51000	2700	C[C@@H]1CN(C(c2ccc(F)cc2)c2ccc(F)cc2)[C@H](C)CN1c1c(Cl)c(=O)n(C)c2ccc(C#N)nc12 [Example 132, 8-((2R,5R)-4-(bis(4-fluorophenyl)methyl)-2,5-dimethylpiperazin-1-yl)-7-chloro-5-methyl-6-oxo-5,6-dihydro-1,5-naphthyridine-2-carbonitrile]	7100	2100	8300	–
110000	10000	C[C@@H]1CN(C(c2ccc(F)cc2)c2ccc(F)cc2)CCN1c1cc(=O)n(C)c2ccc(C#N)nc12 [Example 135, (R)-8-(4-(bis(4-fluorophenyl)methyl)-2-methylpiperazin-1-yl)-5-methyl-6-oxo-5,6-dihydro-1,5-naphthyridine-2-carbonitrile]	3600	10000	61000	–
350	380	C[C@@H]1CN(c2c(F)c(=O)n(C)c3ccc(C#N)nc23)[C@@H](C)CN1C(c1ccc(F)cc1)c1ccc(F)cc1 [Example 157, 8-((2S,5R)-4-(bis(4-fluorophenyl)methyl)-2,5-dimethylpiperazin-1-yl)-7-fluoro-5-methyl-6-oxo-5,6-dihydro-1,5-naphthyridine-2-carbonitrile]	78	72	530	–
2800	960	C[C@@H]1CN(c2c(C#N)c(=O)n(C)c3ccc(C#N)nc23)[C@@H](C)CN1C(c1ccc(F)cc1)c1ccc(F)cc1 [Example 159, 8-((2S,5R)-4-(bis(4-fluorophenyl)methyl)-2,5-dimethylpiperazin-1-yl)-5-methyl-6-oxo-5,6-dihydro-1,5-naphthyridine-2,7-dicarbonitrile]	140	35	1000	–
2400	44000	C[C@@H]1CN(c2c(C#N)c(=O)n(C)c3cccnc23)[C@@H](C)CN1C(c1ccc(F)cc1)c1ccc(F)cc1 [Example 160, 4-((2S,5R)-4-(bis(4-fluorophenyl)methyl)-2,5-dimethylpiperazin-1-yl)-1-methyl-2-oxo-1,2-dihydro-1,5-naphthyridine-3-carbonitrile]	10000	10000	20000	–
68000	29000	C[C@@H]1CN(c2c([N+](=O)[O-])c(=O)n(C)c3ccc(C#N)nc23)[C@@H](C)CN1C(c1ccc(F)cc1)c1ccc(F)cc1 [Example 161, 8-((2S,5R)-4-(bis(4-fluorophenyl)methyl)-2,5-dimethylpiperazin-1-yl)-5-methyl-7-nitro-6-oxo-5,6-dihydro-1,5-naphthyridine-2-carbonitrile]	1500	520	8600	–
7700	58000	CC(C)[C@@H]1CN(c2cc(=O)n(C)c3ccc(C#N)nc23)CCN1C(c1ccc(Cl)cc1)c1ccc(Cl)cc1 [Example 167, (R)-8-(4-(bis(4-chlorophenyl)methyl)-3-isopropylpiperazin-1-yl)-5-methyl-6-oxo-5,6-dihydro-1,5-naphthyridine-2-carbonitrile]	10000	10000	20000	–
